Experimental data reported in PubChem BioAssay (NCI).
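1) Cells in 96-well plates. 2) Compound, 48 h, 5 concentrations. 3) Linear interpolation between surrounding doses. 4) Unreached endpoint = highest concentration. TGI: total growth inhibition.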

What was measured:
Assay in all cases: NCI anticancer screen, dose series, 48 h
SK-MEL-5 melanoma = test system: SK-MEL-5 melanoma
IGROV1 ovarian = test system: IGROV1 ovarian
MDA-N = test system: MDA-N
SK-MEL-2 melanoma = test system: SK-MEL-2 melanoma
NCI/ADR-RES ovarian = test system: NCI/ADR-RES ovarian
NCI-H522 lung = test system: NCI-H522 lung
MOLT-4 leukemia = test system: MOLT-4 leukemia
HOP-92 NSCLC = test system: HOP-92 NSCLC
UO-31 renal = test system: UO-31 renal
SF-295 CNS = test system: SF-295 CNS
UACC-257 melanoma = test system: UACC-257 melanoma
COLO 205 colon = test system: COLO 205 colon
OVCAR-3 ovarian = test system: OVCAR-3 ovarian
BT-549 breast = test system: BT-549 breast
RXF 393 renal = test system: RXF 393 renal
MDA-MB-231 breast = test system: MDA-MB-231 breast
SN12C renal = test system: SN12C renal
786-0 renal = test system: 786-0 renal
SF-539 CNS = test system: SF-539 CNS
A498 renal = test system: A498 renal

SMILES | TGI (SK-MEL-5 melanoma) [µM] | TGI (IGROV1 ovarian) [µM] | TGI (MDA-N) [µM] | TGI (SK-MEL-2 melanoma) [µM] | TGI (NCI/ADR-RES ovarian) [µM] | TGI (NCI-H522 lung) [µM] | TGI (MOLT-4 leukemia) [µM] | TGI (HOP-92 NSCLC) [µM] | TGI (UO-31 renal) [µM] | TGI (SF-295 CNS) [µM] | TGI (UACC-257 melanoma) [µM] | TGI (COLO 205 colon) [µM] | TGI (OVCAR-3 ovarian) [µM] | TGI (BT-549 breast) [µM] | TGI (RXF 393 renal) [µM] | TGI (MDA-MB-231 breast) [µM] | TGI (SN12C renal) [µM] | TGI (786-0 renal) [µM] | TGI (SF-539 CNS) [µM] | TGI (A498 renal) [µM]
CN(C)CCNc1ccc([N+](=O)[O-])c2sc3ccccc3c(=O)c12 | 20.6 | 7.66 | 21.6 | 27.9 | 54.2 | 5.15 | > 100 | 51.2 | 30.8 | > 100 | 19.6 | 14.3 | 32.6 | 17.2 | 38.1 | 9.39 | > 100 | 20.8 | 13.7 | –
O=C(Nc1ccccc1)OCCN=C1c2ccccc2C(Br)C(Br)c2ccccc21 (centres undefined) | 16.9 | 10.6 | 17.1 | > 31.6 | 19.4 | 8.41 | 5.06 | 16.1 | 3.61 | > 31.6 | 15.6 | 13 | 15.8 | – | 9.69 | 20.6 | 17.5 | 8.18 | 7.2 | 18.1
CO[C@]1(c2ccc([N+](=O)[O-])cc2)Oc2ccccc2C(=O)[C@@]1(Nc1ccc(C=O)cc1)OC | > 10 | > 10 | > 10 | > 10 | > 10 | – | > 10 | – | > 10 | > 10 | > 10 | > 10 | > 10 | > 10 | > 10 | > 10 | > 10 | > 10 | > 10 | > 10
CCCN(CCC)CCc1ccc(OC2=CCN(C)CC2)cc1 | > 100 | > 100 | > 100 | > 100 | > 100 | 67 | > 100 | – | 88.3 | > 100 | 43.9 | > 100 | > 100 | > 100 | > 100 | > 100 | > 100 | > 100 | – | –
COc1ccc(NC(=S)Nc2cc(C)cc(C)n2)cc1 | > 100 | > 100 | > 100 | > 100 | > 100 | > 100 | > 100 | – | > 100 | > 100 | > 100 | > 100 | > 100 | > 100 | > 100 | > 100 | > 100 | > 100 | > 100 | > 100
O=C(NC(=S)Nc1ccc(Br)cc1)c1ccc2c(c1)Sc1ccccc1S2 | > 100 | 30.2 | > 100 | 57.9 | 55.9 | 52.6 | 26.7 | 32.5 | 26.6 | 38.6 | 54.5 | > 100 | 41.2 | 60.6 | – | 38.2 | 38.4 | 30.6 | 53.5 | 36.8
CN1Cc2ccccc2S(=O)(=O)n2cccc2C1=O | > 100 | > 100 | > 100 | > 100 | – | > 100 | > 100 | > 100 | > 100 | > 100 | > 100 | > 100 | > 100 | > 100 | > 100 | > 100 | > 100 | > 100 | > 100 | > 100
O=C1OCN(c2ccccc2)C12CCN(Cc1ccccc1)CC2 | 33.6 | > 100 | 62.3 | 48.4 | > 100 | – | 36.6 | > 100 | > 100 | 31.1 | 31 | 39.6 | – | > 100 | 33.2 | 66.6 | > 100 | 79.2 | 39.7 | –
C[N+](C)(CCCn1ccnc1[N+](=O)[O-])CCCn1ccnc1[N+](=O)[O-] | > 100 | > 100 | > 100 | > 100 | > 100 | > 100 | > 100 | – | > 100 | > 100 | > 100 | > 100 | > 100 | > 100 | > 100 | > 100 | > 100 | > 100 | > 100 | > 100
Cc1cccc2oc3c(CC(=O)O)cccc3c(=O)c12 | > 100 | > 100 | > 100 | 17.4 | > 100 | > 100 | > 100 | > 100 | > 100 | > 100 | > 100 | > 100 | > 100 | > 100 | – | > 100 | > 100 | > 100 | > 100 | > 100
S=C(N1CCN(c2ccc(Cl)c(Cl)c2)CC1)N1CCN(c2ccc(Cl)c(Cl)c2)CC1 | 28.4 | 22.5 | 23.8 | 41.7 | 30.3 | 22.8 | 19.9 | – | 25.8 | 22.2 | 30.9 | 22.4 | 26.3 | 30.4 | 35.1 | 21.2 | – | 22.7 | – | –
C1=CC2(C=CC13O[C@H](C1CCCCC1)[C@@H](C1CCCCC1)O3)O[C@H](C1CCCCC1)[C@@H](C1CCCCC1)O2 | > 50 | > 50 | > 50 | > 50 | > 50 | – | > 50 | – | > 50 | > 50 | > 50 | > 50 | > 50 | > 50 | > 50 | > 50 | > 50 | > 50 | > 50 | > 50
